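Method: 48-hour compound exposure of cells in 96-well plates, five concentrations, linear interpolation of endpoints. Definition used: TGI = concentration required for complete inhibition of growth.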
What was measured:
Assay in all cases: NCI-60 cell line screen, 48 h
BT-549 breast = tested on: BT-549 breast
CCRF-CEM leukemia = tested on: CCRF-CEM leukemia
HCC-2998 colon = tested on: HCC-2998 colon
HOP-62 NSCLC = tested on: HOP-62 NSCLC
HS 578T breast = tested on: HS 578T breast
IGROV1 ovarian = tested on: IGROV1 ovarian
LOX IMVI melanoma = tested on: LOX IMVI melanoma
MCF7 breast = tested on: MCF7 breast
MDA-N = tested on: MDA-N
NCI-H226 lung = tested on: NCI-H226 lung
NCI-H23 lung = tested on: NCI-H23 lung
OVCAR-3 ovarian = tested on: OVCAR-3 ovarian
OVCAR-8 ovarian = tested on: OVCAR-8 ovarian
SF-268 CNS = tested on: SF-268 CNS
SF-295 CNS = tested on: SF-295 CNS
SF-539 CNS = tested on: SF-539 CNS
SNB-19 CNS = tested on: SNB-19 CNS

Measured: TGI

CC(C)(C)C1=CC(=C(c2ccc(-c3c4nc(c(-c5ccc(C(=C6C=C(C(C)(C)C)C(=O)C(C(C)(C)C)=C6)c6cc(C(C)(C)C)c(O)c(C(C)(C)C)c6)cc5)c5ccc([nH]5)c(-c5ccc(C(=C6C=C(C(C)(C)C)C(=O)C(C(C)(C)C)=C6)c6cc(C(C)(C)C)c(O)c(C(C)(C)C)c6)cc5)c5nc(c(-c6ccc(C(=C7C=C(C(C)(C)C)C(=O)C(C(C)(C)C)=C7)c7cc(C(C)(C)C)c(O)c(C(C)(C)C)c7)cc6)c6ccc3[nH]6)C=C5)C=C4)cc2)c2cc(C(C)(C)C)c(O)c(C(C)(C)C)c2)C=C(C(C)(C)C)C1=O
> 100 µM: all assays above

O=C1CCCC2(c3ccccc3)Nc3ccccc3N12 (centres undefined)
> 100 µM: all assays above
